Test results as given in ChEMBL document CHEMBL3044635, “Effect of propiconazole and difenoconazole on the control of anthracnose of chilli fruits caused by Colletotrichum capsici” (Crop Prot, 2006).

Experiments:
Colletotrichum truncatum [1] = test: Fungicidal activity against Colletotrichum capsici assessed as inhibition of mycelial growth; format: functional
Colletotrichum truncatum [2] = test: Fungicidal activity against Colletotrichum capsici assessed as sporulation at 25 ug/ml incubated 16 hr photoperiod for 20 days by haemocytometer (reference value: 0.081 x 10^6 ml'-1); format: functional
Colletotrichum truncatum [3] = test: Fungicidal activity against Colletotrichum capsici assessed as linear growth at 1 ug/ml incubated 16 hr photoperiod for 20 days (reference value: 90 mm); format: functional
Colletotrichum truncatum [4] = test: Fungicidal activity against Colletotrichum capsici infected chilli plant assessed as fruit length measured per plot at 0.1% applied as spray on day 10 post inoculation and twice every 20 days measured on day 155 post sowing in field conditions (reference value: 8 to 8.7 cm); format: functional
Colletotrichum truncatum [5] = test: Fungicidal activity against Colletotrichum capsici assessed as mycelial biomass at 50 ug/ml incubated 16 hr photoperiod for 20 days (reference value: 675 mg); format: functional
Colletotrichum truncatum [6] = test: Fungicidal activity against Colletotrichum capsici assessed as linear growth at 5 ug/ml incubated 16 hr photoperiod for 20 days (reference value: 90 mm); format: functional
Colletotrichum truncatum [7] = test: Fungicidal activity against Colletotrichum capsici assessed as linear growth at 0.1 ug/ml incubated 16 hr photoperiod for 20 days (reference value: 90 mm); format: functional
Colletotrichum truncatum [8] = test: Fungicidal activity against Colletotrichum capsici assessed as spore germination at 5 ug/ml after 48 to 96 hr (reference value: 70.2 CFU); format: functional
Colletotrichum truncatum [9] = test: Fungicidal activity against Colletotrichum capsici assessed as linear growth at 50 ug/ml incubated 16 hr photoperiod for 20 days (reference value: 90 mm); format: functional
Colletotrichum truncatum [10] = test: Fungicidal activity against Colletotrichum capsici infected chilli plant assessed as fruit length at 0.1% applied as spray on day 10 post inoculation and twice every 20 days measured on day 155 post sowing in green house conditions (reference value: 6.8 to 7 cm); format: functional
Colletotrichum truncatum [11] = test: Fungicidal activity against Colletotrichum capsici assessed as linear growth at 10 ug/ml incubated 16 hr photoperiod for 20 days (reference value: 90 mm); format: functional
Colletotrichum truncatum [12] = test: Fungicidal activity against Colletotrichum capsici infected chilli plant assessed as percent disease index at 0.1% applied as spray on day 10 post inoculation and twice every 20 days measured on day 155 post sowing in field conditions (reference value: 51 to 56.5%); format: functional
Colletotrichum truncatum [13] = test: Fungicidal activity against Colletotrichum capsici assessed as sporulation at 10 ug/ml incubated 16 hr photoperiod for 20 days by haemocytometer (reference value: 0.081 x 10^6 ml'-1); format: functional
Colletotrichum truncatum [14] = test: Fungicidal activity against Colletotrichum capsici assessed as mycelial biomass at 5 ug/ml incubated 16 hr photoperiod for 20 days (reference value: 675 mg); format: functional
Colletotrichum truncatum [15] = test: Fungicidal activity against Colletotrichum capsici assessed as reduction of pectin trans-eliminase production at 1 ug/ml incubated for 10 days measured up to 120 min by Ostwald-Fenske viscometric analysis (reference value: 38.5%); format: functional; set-up: scale not given: the % may be the effect or the level left
Colletotrichum truncatum [16] = test: Fungicidal activity against Colletotrichum capsici assessed as mycelial biomass at 25 ug/ml incubated 16 hr photoperiod for 20 days (reference value: 675 mg); format: functional
Colletotrichum truncatum [17] = test: Fungicidal activity against Colletotrichum capsici infected chilli plant assessed as fruit yield measured per plot at 0.1% applied as spray on day 10 post inoculation and twice every 20 days measured on day 155 post sowing in field conditions (reference value: 8.25 to 9.3 kg); format: functional
Colletotrichum truncatum [18] = test: Fungicidal activity against Colletotrichum capsici assessed as spore germination at 10 ug/ml after 48 to 96 hr (reference value: 70.2 CFU); format: functional
Colletotrichum truncatum [19] = test: Fungicidal activity against Colletotrichum capsici assessed as sporulation at 1 ug/ml incubated 16 hr photoperiod for 20 days by haemocytometer (reference value: 0.081 x 10^6 ml'-1); format: functional
Colletotrichum truncatum [20] = test: Fungicidal activity against Colletotrichum capsici assessed as mycelial biomass at 1 ug/ml incubated 16 hr photoperiod for 20 days (reference value: 675 mg); format: functional
Colletotrichum truncatum [21] = test: Fungicidal activity against Colletotrichum capsici assessed as sporulation at 0.5 ug/ml incubated 16 hr photoperiod for 20 days by haemocytometer (reference value: 0.081 x 10^6 ml'-1); format: functional
Colletotrichum truncatum [22] = test: Fungicidal activity against Colletotrichum capsici infected chilli plant assessed as fruit mass measured per pot at 0.1% applied as spray on day 10 post inoculation and twice every 20 days measured on day 155 post sowing in green house conditions (reference value: 85.3 to 94.5 g); format: functional
Colletotrichum truncatum [23] = test: Fungicidal activity against Colletotrichum capsici assessed as linear growth at 0.5 ug/ml incubated 16 hr photoperiod for 20 days (reference value: 90 mm); format: functional
Capsicum annuum = test: Phytotoxicity in Capsicum annuum (pepper) at 0.1% applied as spray; format: organism-based; conditions: in vivo, other
Colletotrichum truncatum [24] = test: Fungicidal activity against Colletotrichum capsici assessed as mycelial biomass at 0.1 ug/ml incubated 16 hr photoperiod for 20 days (reference value: 675 mg); format: functional
Colletotrichum truncatum [25] = test: Fungicidal activity against Colletotrichum capsici assessed as reduction of polygalacturonase production at 1 ug/ml incubated for 10 days measured up to 120 min by Ostwald-Fenske viscometric analysis (reference value: 45.3%); format: functional; set-up: scale not given: the % may be the effect or the level left
Colletotrichum truncatum [26] = test: Fungicidal activity against Colletotrichum capsici assessed as spore germination at 25 ug/ml after 48 to 96 hr (reference value: 70.2 CFU); format: functional
Colletotrichum truncatum [27] = test: Fungicidal activity against Colletotrichum capsici assessed as spore germination at 1 ug/ml after 48 to 96 hr (reference value: 70.2 CFU); format: functional
Colletotrichum truncatum [28] = test: Fungicidal activity against Colletotrichum capsici assessed as mycelial biomass at 10 ug/ml incubated 16 hr photoperiod for 20 days (reference value: 675 mg); format: functional
Colletotrichum truncatum [29] = test: Fungicidal activity against Colletotrichum capsici assessed as sporulation at 50 ug/ml incubated 16 hr photoperiod for 20 days by haemocytometer (reference value: 0.081 x 10^6 ml'-1); format: functional
Colletotrichum truncatum [30] = test: Fungicidal activity against Colletotrichum capsici assessed as mycelial biomass at 0.5 ug/ml incubated 16 hr photoperiod for 20 days (reference value: 675 mg); format: functional
Colletotrichum truncatum [31] = test: Fungicidal activity against Colletotrichum capsici assessed as spore germination at 50 ug/ml after 48 to 96 hr (reference value: 70.2 CFU); format: functional
Colletotrichum truncatum [32] = test: Fungicidal activity against Colletotrichum capsici assessed as sporulation at 0.1 ug/ml incubated 16 hr photoperiod for 20 days by haemocytometer (reference value: 0.081 x 10^6 ml'-1); format: functional
Colletotrichum truncatum [33] = test: Fungicidal activity against Colletotrichum capsici assessed as sporulation at 5 ug/ml incubated 16 hr photoperiod for 20 days by haemocytometer (reference value: 0.081 x 10^6 ml'-1); format: functional
Colletotrichum truncatum [34] = test: Fungicidal activity against Colletotrichum capsici infected chilli plant assessed as percent disease index at 0.1% applied as spray on day 10 post inoculation and twice every 20 days measured on day 155 post sowing in green house conditions (reference value: 62.5 to 68.6%); format: functional
Colletotrichum truncatum [35] = test: Fungicidal activity against Colletotrichum capsici assessed as reduction of polygalacturonase trans-eliminase production at 1 ug/ml incubated for 10 days measured up to 120 min by Ostwald-Fenske viscometric analysis (reference value: 40.8%); format: functional; set-up: scale not given: the % may be the effect or the level left
Colletotrichum truncatum [36] = test: Fungicidal activity against Colletotrichum capsici assessed as spore germination at 0.5 ug/ml after 48 to 96 hr (reference value: 70.2 CFU); format: functional
Colletotrichum truncatum [37] = test: Fungicidal activity against Colletotrichum capsici assessed as linear growth at 25 ug/ml incubated 16 hr photoperiod for 20 days (reference value: 90 mm); format: functional
Colletotrichum truncatum [38] = test: Fungicidal activity against Colletotrichum capsici assessed as inhibition of spore germination at 0.1 ug/ml after 48 to 96 hr relative to control; format: functional

Question: `CC(C)(C)C(O)C(Oc1ccc(-c2ccccc2)cc1)n1cncn1` (configuration not stated) [BITERTANOL] was tested. Which ED50 (Colletotrichum truncatum [1]) did it give?
Answer: Its ED50 is under 5 ugAi/ml.

Question: For `COC(=O)Nc1nc2ccccc2[nH]1` [CARBENDAZIM], which Activity (Colletotrichum truncatum [2]) is on record?
Answer: The Activity was 0 ×10⁶ /ml.

Question: What about the Activity (Colletotrichum truncatum [3]) of the same molecule?
Answer: The Activity was 45.8 mm.

Question: What about the Activity (Colletotrichum truncatum [4]) of the same molecule?
Answer: Its Activity is 8.5 cm.

Question: And the Activity (Colletotrichum truncatum [5])?
Answer: The Activity was 0 mg.

Question: And the Activity (Colletotrichum truncatum [6])?
Answer: Its Activity is 39.5 mm.

Question: And the Activity (Colletotrichum truncatum [7])?
Answer: The Activity was 85.5 mm.

Question: And the CFU (Colletotrichum truncatum [8])?
Answer: Its CFU is 3.2.

Question: What about the Activity (Colletotrichum truncatum [9]) of the same molecule?
Answer: Its Activity is 9 mm.

Question: And the Activity (Colletotrichum truncatum [10])?
Answer: The Activity was 7.3 cm.

Question: What about the Activity (Colletotrichum truncatum [11]) of the same molecule?
Answer: The Activity was 21.3 mm.

Question: And the PDI (Colletotrichum truncatum [12])?
Answer: Its PDI is 27.5%.

Question: And the Activity (Colletotrichum truncatum [13])?
Answer: The Activity was 0 ×10⁶ /ml.

Question: And the Activity (Colletotrichum truncatum [14])?
Answer: The Activity was 186 mg.

Question: And the Activity (Colletotrichum truncatum [15])?
Answer: The Activity was 18%.

Question: And the Activity (Colletotrichum truncatum [16])?
Answer: Its Activity is 46 mg.

Question: What about the Crop_yield (Colletotrichum truncatum [17]) of the same molecule?
Answer: The Crop_yield was 11.25 kg.

Question: What about the CFU (Colletotrichum truncatum [18]) of the same molecule?
Answer: The CFU was 0.

Question: What about the Activity (Colletotrichum truncatum [19]) of the same molecule?
Answer: Its Activity is 1.49 ×10⁶ /ml.

Question: And the Activity (Colletotrichum truncatum [20])?
Answer: The Activity was 304 mg.

Question: And the Activity (Colletotrichum truncatum [21])?
Answer: Its Activity is 2.42 ×10⁶ /ml.

Question: And the Crop_yield (Colletotrichum truncatum [22])?
Answer: The Crop_yield was 120.8 g.

Question: What about the Activity (Colletotrichum truncatum [23]) of the same molecule?
Answer: Its Activity is 66.3 mm.

Question: What about the Activity (Capsicum annuum) of the same molecule?
Answer: Its Activity is “Non-toxic”.

Question: And the Activity (Colletotrichum truncatum [24])?
Answer: Its Activity is 570 mg.

Question: What about the Activity (Colletotrichum truncatum [25]) of the same molecule?
Answer: Its Activity is 13.5%.

Question: And the CFU (Colletotrichum truncatum [26])?
Answer: The CFU was 0.

Question: What about the CFU (Colletotrichum truncatum [27]) of the same molecule?
Answer: Its CFU is 10.3.

Question: And the Activity (Colletotrichum truncatum [28])?
Answer: Its Activity is 82 mg.

Question: And the Activity (Colletotrichum truncatum [29])?
Answer: The Activity was 0 ×10⁶ /ml.

Question: What about the Activity (Colletotrichum truncatum [30]) of the same molecule?
Answer: Its Activity is 405 mg.

Question: What about the CFU (Colletotrichum truncatum [31]) of the same molecule?
Answer: Its CFU is 0.

Question: And the Activity (Colletotrichum truncatum [32])?
Answer: Its Activity is 3.53 ×10⁶ /ml.

Question: What about the Activity (Colletotrichum truncatum [33]) of the same molecule?
Answer: The Activity was 1.03 ×10⁶ /ml.

Question: And the PDI (Colletotrichum truncatum [34])?
Answer: The PDI was 27.7%.

Question: What about the Activity (Colletotrichum truncatum [35]) of the same molecule?
Answer: Its Activity is 19%.

Question: And the CFU (Colletotrichum truncatum [36])?
Answer: The CFU was 32.2.

Question: What about the Activity (Colletotrichum truncatum [37]) of the same molecule?
Answer: Its Activity is 9 mm.

Question: What about the inhibition at 0.1 µg/mL (Colletotrichum truncatum [38]) of the same molecule?
Answer: Its inhibition at 0.1 µg/mL is 35%.

Question: Which ED50 (Colletotrichum truncatum [1]) does the source give for `C=CCOC(Cn1ccnc1)c1ccc(Cl)cc1Cl` (configuration not stated) [ENILCONAZOLE] here?
Answer: Its ED50 is under 5 ugAi/ml.

Question: How did the ED50 (Colletotrichum truncatum [1]) turn out when `CCCCC(O)(Cn1cncn1)c1ccc(Cl)cc1Cl` (configuration not stated) [HEXACONAZOLE] was run?
Answer: Its ED50 is under 5 ugAi/ml.

Question: How did the ED50 (Colletotrichum truncatum [1]) turn out when `c1ccc2[nH]c(-c3cscn3)nc2c1` [THIABENDAZOLE] was run?
Answer: Its ED50 is under 5 ugAi/ml.
